From the supplement of paper PMC13380429

Tests used:
Details in all cases: 72 h
U2OS [1] = assay: cell viability relative to DMSO; higher = less toxic
HepG2 [2] = assay: as above
Vero E6 [3] = assay: as above
Caco-2 [4] = assay: as above
Calu-3 [5] = assay: as above
U2OS [6] = assay: relative viability EC50 (midpoint between 100% and the lowest measured viability); higher = less toxic
HepG2 [7] = assay: as above
Vero E6 [8] = assay: as above
Caco-2 [9] = assay: as above
Calu-3 [10] = assay: as above
U2OS [11] = assay: drug sensitivity score (DSS) for viability; higher = more toxic; extreme values may be limits of the assay
HepG2 [12] = assay: as above
Vero E6 [13] = assay: as above
Caco-2 [14] = assay: as above
Calu-3 [15] = assay: as above

| SMILES | cell viability (U2OS [1]; 1 nM) | cell viability (U2OS [1]; 10 nM) | cell viability (U2OS [1]; 100 nM) | cell viability (U2OS [1]; 1000 nM) | cell viability (U2OS [1]; 10000 nM) | cell viability (HepG2 [2]; 1 nM) | cell viability (HepG2 [2]; 10 nM) | cell viability (HepG2 [2]; 100 nM) | cell viability (HepG2 [2]; 1000 nM) | cell viability (HepG2 [2]; 10000 nM) | cell viability (Vero E6 [3]; 1 nM) | cell viability (Vero E6 [3]; 10 nM) | cell viability (Vero E6 [3]; 100 nM) | cell viability (Vero E6 [3]; 1000 nM) | cell viability (Vero E6 [3]; 10000 nM) | cell viability (Caco-2 [4]; 1 nM) | cell viability (Caco-2 [4]; 10 nM) | cell viability (Caco-2 [4]; 100 nM) | cell viability (Caco-2 [4]; 1000 nM) | cell viability (Caco-2 [4]; 10000 nM) | cell viability (Calu-3 [5]; 1 nM) | cell viability (Calu-3 [5]; 10 nM) | cell viability (Calu-3 [5]; 100 nM) | cell viability (Calu-3 [5]; 1000 nM) | cell viability (Calu-3 [5]; 10000 nM) | relative viability EC50 (U2OS [6]) | relative viability EC50 (HepG2 [7]) | relative viability EC50 (Vero E6 [8]) | relative viability EC50 (Caco-2 [9]) | relative viability EC50 (Calu-3 [10]) | drug sensitivity score (U2OS [11]) | drug sensitivity score (HepG2 [12]) | drug sensitivity score (Vero E6 [13]) | drug sensitivity score (Caco-2 [14]) | drug sensitivity score (Calu-3 [15]) |
| --- | --- | --- | --- | --- | --- | --- | --- | --- | --- | --- | --- | --- | --- | --- | --- | --- | --- | --- | --- | --- | --- | --- | --- | --- | --- | --- | --- | --- | --- | --- | --- | --- | --- | --- | --- |
| CC(C)N(CCc1c[nH]c2ccccc12)C(C)C [DIPT] | 101% | 99.7% | 98.2% | 102% | 96.6% | 93.2% | 86.3% | 99.5% | 86% | 95.7% | 103% | 98.9% | 101% | 95.1% | 97.4% | 95% | 103% | 107% | 101% | 102% | 85.7% | 95.4% | 97.5% | 96% | 103% | > 10 µM | > 10 µM | > 10 µM | > 10 µM | > 10 µM | 0 | 0 | 0 | 0 | 0 |
| CCCc1nc2c(C)cc(-c3nc4ccccc4n3C)cc2n1Cc1ccc(-c2ccccc2C(=O)O)cc1 [telmisartan] | 97.3% | 105% | 97.5% | 98.9% | 98.6% | 94.2% | 95.1% | 103% | 99.8% | 111% | 100% | 95.9% | 96% | 92.9% | 96.6% | 89.5% | 97.3% | 90.7% | 90.6% | 87.5% | 92.9% | 97.9% | 102% | 102% | 108% | > 10 µM | > 10 µM | > 10 µM | > 10 µM | > 10 µM | 0 | 0 | 0 | 0 | 0 |
| CC1CC(OC(=O)C(O)c2ccccc2)CC(C)(C)N1C (stereo not given) [eucatropine] | 104% | 104% | 97.8% | 100% | 100% | 93.5% | 88.3% | 95.3% | 90% | 93.3% | 97.8% | 102% | 98.2% | 102% | 98.8% | 99.3% | 103% | 97% | 99.2% | 92.6% | 101% | 100% | 92.5% | 95% | 107% | > 10 µM | > 10 µM | > 10 µM | > 10 µM | > 10 µM | 0 | 0 | 0 | 0 | 0 |
| CCOc1cncc(/C=C/CCNC)c1 [TC2559] | 101% | 102% | 97% | 101% | 104% | 100% | 93.1% | 110% | 96.7% | 117% | 94.1% | 94.5% | 89.2% | 90.2% | 110% | 97.9% | 99.4% | 100% | 108% | 102% | 87.6% | 98.9% | 98.2% | 95.9% | 109% | > 10 µM | > 10 µM | > 10 µM | > 10 µM | > 10 µM | 0 | 0 | 0 | 0 | 0 |
| COC1CCN(C(=O)c2cc(Cc3n[nH]c(=O)c4ccccc34)ccc2F)CC1 [AZD2461] | 94.4% | 96% | 99.1% | 94.4% | 100% | 99.5% | 86% | 85.5% | 93.8% | 87.2% | 99.3% | 97% | 99.7% | 97.9% | 99.9% | 90.3% | 97.5% | 95.5% | 100% | 93.6% | 86.7% | 100% | 79.8% | 69.5% | 92.5% | > 10 µM | > 10 µM | > 10 µM | > 10 µM | > 10 µM | 0 | 3.4 | 0 | 0 | 0 |
| CCCCN1CCC(CCC(=O)c2cc(Cl)c(N)cc2OC)CC1 | 104% | 93.6% | 95.8% | 92.7% | 94.1% | 95.5% | 98.2% | 96.9% | 82.8% | 83.5% | 101% | 102% | 99.2% | 101% | 94.1% | 104% | 100% | 97.3% | 92.7% | 95.2% | 101% | 99.5% | 101% | 98.3% | 109% | > 10 µM | > 10 µM | > 10 µM | > 10 µM | > 10 µM | 0 | 2.4 | 0 | 0 | 0 |
| CCOC(=O)C1=C(C)NC(=S)NC1c1cccc(O)c1 (stereo not given) [monastrol] | 103% | 99% | 103% | 98.7% | 104% | 99.3% | 107% | 96.2% | 99.4% | 101% | 104% | 108% | 102% | 97.6% | 97.9% | 103% | 94.6% | 94.1% | 96% | 96.8% | 89.7% | 95.1% | 95.6% | 100% | 103% | > 10 µM | > 10 µM | > 10 µM | > 10 µM | > 10 µM | 0 | 0 | 0 | 0 | 0 |
